Tests used:
[1] = Dual-drug release from multi-length MNA into two-gel skin model; format: physicochemical; conditions: 1% alginate, 16 h
Description: Evaluation of Dual-Drug Release Capability. For the dual release, MNAs with 4.2 mm long and 2 mm short needles were separately loaded with a 1% (m/v) alginate solution in DPBS containing ˜46 μg/mL of Rh-B, ˜1010 μg/mL of BSA-FITC, or no added analyte. Four combinations of analyte-loaded alginate MNAs were tested: (1) long needles loaded with Rh-B and short needles loaded with BSA-FITC (Rh-B/FITC), (2) long needles loaded with Rh-B and short needles blank (Rh-B/Blank), (3) long needles blank and short needles loaded with BSA-FITC (Blank/FITC), and (4) both lengths blank (Blank/Blank). The gels were crosslinked as previously mentioned and ran in quintuplicate. The needles were inserted into a two-gel skin model that include a 2 mm thick 3% (m/v) low-gelling agarose cast on top of a 3 mm thick 10% (m/v) porcine gelatin in 12 well plates. Both solutions were prepared in PBS. […] The collected gels were melted and the amount of Rh-B and BSA-FITC was quantified using a BioTek Cytation 5 plate reader at an excitation/emission of 546/568 and 495/520 nm, respectively.
An additional release experiment was conducted to evaluate the performance of the MNA at the dual-delivery of drugs. […] Following the release, the gel layers were separated, melted, and read in a plate reader for their Rh-B and BSA-FITC content. […] The measured release results are quantified in FIG. 5C, FIG. 5D, and FIG. 13. […]

[2] = test system: Human umbilical vein endothelial cells (HUVECs); assay: In vitro scratch assay on cultured HUVECs; format: cell-based
Description: In Vitro Scratch Assay. Human umbilical vein endothelial cells (HUVECs) (Sigma-Aldrich) were cultured in EGM™ Endothelial Cell Growth Medium BulletKit™ (Lonza) complete medium. At their fifth passage, the HUVECs were detached using trypsin-EDTA (0.1% w/v), resuspended in the growth medium, and seeded at a concentration of 50,000 cells per well into a 12-well tissue culture plate that was coated with a thin layer of Geltrex® hESC-Qualified, Ready-To-Use, Reduced Growth Factor Basement Membrane Matrix (Gibco®). The Geltrex® layer was formed by diluting by a factor of 2 in the basal endothelial medium and seeding in empty wells. […]
A scratch was created in the confluent HUVECs by lightly dragging a P200 pipette tip across the bottom of the well. […] The concentration of VEGF in the MNA+VEGF group was calculated so that if total VEGF release occurred, the concentration of VEGF in the well would match the concentration of the positive control (50 ng/mL). […] The area of scratch closure for each time point was calculated using ImageJ (NIH, Bethesda, Md.) and compared for relative area change to 0 h.
The ability of the platform to preserve the bioactivity of encapsulated therapeutics was assessed by loading vascular endothelial growth factor (VEGF), an important angiogenic factor. […] Three different groups were evaluated: MNA−VEGF, MNA+VEGF, and a positive control. […]

## BSA fluorescein isothiocyanate conjugate [BSA-FITC]
[1]; short needles (2 mm)
  BSA-FITC signal by gel layer: greater BSA-FITC signal in the top, agarose layer

## vascular endothelial growth factor [VEGF]
[2]; after 8 h of culture, HUVEC scratch, n=4
  healing potential (gap closure): cells nearly closed the gap in its entirety
[2]; scratch assay
  effect on HUVEC migration: positive effect

## CCN(CC)c1ccc2c(-c3ccccc3C(=O)O)c3ccc(=[N+](CC)CC)cc-3oc2c1.[Cl-] [Rh-B, Rhodamine B]
[1]; long needles (4.2 mm)
  Rh-B signal by gel layer: stronger in the gelatin
